These are literature values, as cited in patent publication US12070444B2, “Modulation of molecular markers using S-equol” (Board of Regents, The University of Texas System, priority 2020, dated 2024).

For one data set, the system named is Ki67 expression. The settings on record: IMPACT trial; cited from earlier work.
In a further data set the test system is TNBC. The settings on record: cited from earlier work.
In data set [1] the test system is tumor resistance to ICB immunotherapy. The settings on record: recent report (Huang, 2020); cited from earlier work.

Like-named read-outs stand apart in the source and are kept apart here.

Turning to `CC/C(=C(\c1ccccc1)c1ccc(OCCN(C)C)cc1)c1ccccc1` [tamoxifen], in the data set with Ki67 expression, the “change in the geometric mean of Ki67 expression after two weeks” value is given as −59.5%.
`CC(C)(C#N)c1cc(Cn2cncn2)cc(C(C)(C)C#N)c1` [anastrazole]: the “change in the geometric mean of Ki67 expression after two weeks” value with Ki67 expression is listed as −76%.
atezolizumab: in the data set with TNBC (21 evaluable, PD-L1 expressing TNBC tumors (Emens et al. 2015)), the response rate is listed as 19%.
Consider avelumab, for which the response rate in the data set on TNBC (168 TNBC tumors unselected for PD-L1 expression (Dirix et al. 2015)) is on record as 8.6%.
Regarding `Oc1ccc([C@@H]2Oc3ccc(O)cc3[C@@H]3CCC[C@@H]32)cc1` [LY500307], the “effect on tumor resistance to ICB immunotherapy” value in data set [1] is on record as “overcoming tumor resistance to ICB immunotherapy”.
Regarding pembrolizumab, in the data set with TNBC (Phase 1 study, 27 women, heavily pretreated chemotherapy resistant metastatic TNBC expressing PD-L1 (Nanda et al. 2016)), the response rate is recorded as 18.4%.
